In brackets after ≈: the same amount, converted by molar mass. Several values for one entry are separate records, joined by “and”; a condition that tells them apart may be missing. Equal values may be shown once.

For orientation: IC50 means the concentration that inhibits the measured activity by half. The term Ki denotes a dissociation constant, usually derived from enzyme kinetics or from competition with a known ligand.

The nature of series [1]: Cytotoxicity against L6 cells. The series is classed as cell-based, rat. The settings on record: rat.
The next series deals with PfFabG (Plasmodium falciparum, UniProt Q8I2S7). The series is described as follows: biochemical. The series is classed as biochemical.
Series [2] deals with L. donovani strain MHOM/ET/67/L82. The series is described as follows: Leishmanicidal activity, axenic amastigotes. The series is classed as cell-based. The note with it: Leishmania donovani, 72 h, read-out: IC50 Leishmania donovani.
For the next series, the target named is T1, PfFabZ (Plasmodium falciparum, UniProt Q965D7).
T1 sequence (Q965D7 19-230): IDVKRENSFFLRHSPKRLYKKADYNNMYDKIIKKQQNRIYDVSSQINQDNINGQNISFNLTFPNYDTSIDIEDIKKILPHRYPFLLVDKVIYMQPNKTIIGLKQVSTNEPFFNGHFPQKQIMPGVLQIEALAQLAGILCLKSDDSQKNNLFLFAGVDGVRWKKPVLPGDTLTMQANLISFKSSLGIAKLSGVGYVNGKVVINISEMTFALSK
The series is described as follows: biochemical. Format: biochemical.

The test system of a further series is P. falciparum K1 strain. Format: cell-based. The settings on record: Plasmodium falciparum, K1, read-out: IC50 P. falciparum BS.
The subject of series [3] is P. yoelii liver stages (PyGFP sporozoites). The series is described as follows: Liver stage growth inhibition, flow cytometric. The series is classed as cell-based. The note with it: Plasmodium yoelii, 43 h, read-out: IC50 P. yoelii LS FC. (In general: In flow cytometry, cells or beads pass a laser one at a time.)
The subject of the next series is HepG2:CD81 cells. The series is described as follows: Toxicity to hepatoma cells. Format: cell-based. The settings on record: FC (7-AAD) or IFA (DAPI).
The target of another series is T2, PfFabI (Plasmodium falciparum, UniProt Q9BH77).
T2 sequence (Q9BH77 22-432): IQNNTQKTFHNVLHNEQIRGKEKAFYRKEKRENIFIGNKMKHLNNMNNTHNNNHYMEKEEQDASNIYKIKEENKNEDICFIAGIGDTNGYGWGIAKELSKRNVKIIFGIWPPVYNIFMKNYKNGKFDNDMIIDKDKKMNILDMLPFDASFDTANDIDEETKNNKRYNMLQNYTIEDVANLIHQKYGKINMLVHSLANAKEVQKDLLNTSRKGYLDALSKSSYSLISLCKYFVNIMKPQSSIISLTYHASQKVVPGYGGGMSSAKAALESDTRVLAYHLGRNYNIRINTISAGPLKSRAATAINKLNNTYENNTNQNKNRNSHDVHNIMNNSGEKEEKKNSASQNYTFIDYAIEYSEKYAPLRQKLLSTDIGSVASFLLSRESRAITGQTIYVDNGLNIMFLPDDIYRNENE
The series is described as follows: biochemical. The series is classed as biochemical. The note with it: for Ki: Ki PfFabI.

In a further series the test system is P. yoelii liver stages. The series is described as follows: Liver stage growth inhibition, immunofluorescence analysis. The series is classed as cell-based. The settings on record: Plasmodium yoelii, 43 h, read-out: IC50 P. yoelii LS IFA.
The target of series [4] is mycobacterial InhA (MtFabI) enzyme. The note with it: read-out: Ki InhA (MtFabI); competitive inhibition; cited from earlier work.
A further series has as its system L6 cells. The series is described as follows: Cytotoxicity against L6 cells. The series is classed as cell-based, rat. The settings on record: highest test concentration 90 μg/ml.
A further series relates to LS development. The settings on record: cited from earlier work.
The test system of series [5] is late liver phases of P. berghei. The note with it: cited from earlier work.

In [1], `CCCCCCCCCCCCCC#CC(=O)O` [2-HDA, 2-Hexadecynoic acid] gave an IC50 at 72 h of 85.9 µg/mL (≈ 340 µM). The IC50 at PfFabG is 13900 nM; in [2], 4.5 µg/mL (≈ 17.8 µM); against PfFabZ, 2300 nM; in the series on P. falciparum K1 strain, 10.4 µg/mL (≈ 41.2 µM); in series [3] it was 15.3 µg/mL (≈ 60.6 µM); at PfFabI it was 1510 nM. Further, the IC50 in the series on P. yoelii liver stages turned out to be 4.88 µg/mL (≈ 19.3 µM). The Ki is 6000 nM on PfFabG (Ki PfFabG, cofactor NADPH varied); 2580 nM on PfFabI (cofactor (NADH) varied); 2890 nM and 2900 nM on PfFabI (substrate (crotonyl-CoA) varied); 2100 ± 600 nM in [4]. Further, the figures for the “Inhibition type PfFabG” value at PfFabG (cofactor NADPH varied) and at PfFabG (substrate acetoacetyl-CoA varied) were “non-competitive” and “competitive”, respectively. Also, the “Inhibition type PfFabZ” value on PfFabZ (with respect to the substrate) was “competitive”. In addition, the “Toxicity against HepG2:CD81 hepatoma cells (in words)” value in the series with HepG2:CD81 cells is “non-toxic”. In addition, the “Inhibition type PfFabI” value on PfFabI (with respect to crotonyl-CoA and the cofactor NADH) was “non-competitive”.
As to `CCCCCCCCCCC#CCCCC(=O)O` [5-HDA, 5-Hexadecynoic acid], the “Toxicity against L6 cells (in words)” value in the series with L6 cells is “completely non-toxic”. This compound displayed an IC50 against PfFabG greater than 396000 nM.
`CCCCCCCCCC#CCCCCC(=O)O` [6-HDA, 6-Hexadecynoic acid]: the IC50 on PfFabG was greater than 396000 nM.
For `CCCCCCC#CCCCCCCCC(=O)O` [9-HDA, 9-Hexadecynoic acid], the IC50 against PfFabG is greater than 396000 nM; with P. falciparum K1 strain, 10.3 µg/mL (≈ 40.8 µM).
For `CCCCCCCCCCCCCCCC(=O)O` [PA, Palmitic acid, reference compound], the IC50 at PfFabG and against PfFabI was greater than 390000 nM each time.
Turning to `Oc1c(Cl)cc(Cl)c(Cl)c1Cc1c(O)c(Cl)cc(Cl)c1Cl` [hexachlorophene], in the series on LS development, the “IC50 LS development in vitro” value is 1.95 µg/mL (≈ 4.79 µM). Further, in the series with LS development (read-out: IC50 LS development in vitro), the IC50 was 4800 nM.
`Oc1cc(Cl)ccc1Oc1ccc(Cl)cc1Cl` [triclosan]: in [5], the “IC50 late liver phases of P. berghei” value was 11.4 µg/mL. The IC50 in [5] (read-out: IC50 late liver phases of P. berghei) is 39400 nM.

Source of the values: article PMC2981824 (Bioorganic & medicinal chemistry, 2010).
